# Source: ChEMBL document CHEMBL3774314, “Ammonium tetrathiomolybdate as a water-soluble and slow-release hydrogen sulfide donor” (Bioorg Med Chem Lett, 2016)
# Active and inactive are the calls of the source. The calls are words filed in the database; no cut-off is given here.
# How the values were obtained:
# [1] = Induction of Hydrogen sulfide production at pH 5 to 8 measured upto 15 hrs by UV-vis method based zinc-sulfide precipitation based methylene blue Method; type: physicochemical; conditions: pH 5, 15 h
# [2] = tested on: HaCaT; test: Toxicity in human HaCaT cells assessed as H2O2-induced decrease in cell viability at 400 uM after 1 hr by CCK8 assay; type: cell-based
# [3] = tested on: HaCaT; test: Effect on mitochondrial membrane potential in human HaCaT cells after 1 hr by Rhodamine 123 staining based fluorescence assay; type: ADME, cell-based
# [4] = tested on: HaCaT; test: Cytoprotective activity in human HaCaT cells assessed as inhibition of H2O2-induced decrease in cell viability at 50 to 200 uM after 1 hr by CCK8 assay; type: functional, cell-based
# [5] = tested on: HaCaT; test: Cytoprotective activity in human HaCaT cells assessed as inhibition of H2O2-induced decrease in LDH release at 200 uM; type: functional, cell-based
# [6] = tested on: HaCaT; test: Cytoprotective in human HaCaT cells assessed as inhibition of H2O2-induced decrease in mitochondrial membrane potential at 200 uM preincubated for 1 hr followed by H2O2 addition by Rhodamine 123 staining based fluorescence assay; type: functional, cell-based
Sequence,Activity [1],Activity [2],Activity [3],Activity [4],Activity [5],Activity [6]
TIOMOLIBDATE DIAMMONIUM [listing 1 of 2 here],Active,Toxic,Non-toxic,–,–,–
TIOMOLIBDATE DIAMMONIUM [listing 2 of 2 here],–,–,–,Active,Active,Active
